Measured values published in patent publication US20030212034A1, “Method of treatment of obesity and paralyzed muscle and ergogenic aids” (priority 2002, published 2003).

Columns and labels:
Format in all cases: in vivo, rat
[1] = tested on: AMP-activated protein kinase (AMPK); assay: AMPK activity in ammonium sulfate precipitates of muscle homogenates after s.c. AICAR injection
Protocol: Three days prior to the experiment, jugular cathethers were installed and exteriorized on the back of the neck to allow rapid anesthesia of the rat and rapid blood and tissue collection. Rats were then injected with AICAR (1 mg/g body wt) subcutaneously in sterile 0.9% NaCl or were given 0.9% NaCl (n=6 rats per group). One hour after the subcutaneous injection, rats were anesthetized by intravenous injection of pentobarbital sodium (4.8 mg/100 g body wt). The superficial white and the deep red regions of the quadriceps muscles, and the soleus muscles were quickly removed and frozen with stainless steel clamps at liquid nitrogen temperature.
(§1) Resuspended ammonium sulfate precipitates of tissue homogenates were analyzed for AMPK activity and acetyl-CoA carboxylase activity as described previously. Li, B., et al. J. Biol. Chem. 274:17534-17540, 1999; Winder, W. W., & D. G. Hardie Am. J. Physiol. 270:E299-E304, 1996. […] ACC activity at 0.2 mM citrate provides some indication of the in vivo activity of AMPK, since ACC is a target for phosphorylation of AMPK. ACC activity has previously been reported to decrease in response to phosphorylation by AMPK. Winder, W. W., & D. G. Hardie Am. J. Physiol. 270:E299-E304, 1996. The acute experiment was also repeated on rats treated with AICAR or saline for 4 weeks to see if the responses of AMPK and ACC to AICAR persisted for the entire treatment period. In both experiments ATP and CP were measured on neutralized perchloric acid extracts of muscle.

[2] = ZMP concentration in muscle after AICAR injection; settings: for ZMP concentration: one hour after AICAR injection in rats given daily injections for 4 weeks
Protocol: as §1
(§2) After obtaining results on blunted acute response to an AICAR injection on AMPK in chronically treated rats, an additional experiment was done to determine if intermittent treatment of rats with AICAR would influence the extent of the increase in citrate synthase. This experiment was also of shorter duration to minimize down regulation that appeared to occur with prolonged treatment. Rats were injected for three days (1 mg/g) followed by two days of no treatment. They were then injected for five days, followed by another two days with no treatment and then for three additional days before killing 20-24 hours following the last injection. Rats were anesthetized and tissues were collected and frozen as before. Analytical methods. Muscles from rats killed 1 h after injection of AICAR or saline were analyzed for AMPK, acetyl-CoA carboxylase (ACC) at 0.2 mM citrate, ATP and CP and ZMP. Li, B., et al. J. Biol. Chem. 274:17534-17540, 1999; Winder, W. W., & D. G. Hardie Am. J. Physiol. 270:E299-E304, 1996; Heinz, F., & H. Weisser. Creatine phosphate. In: Methods of Enzymatic Analysis, edited by H. U. Bergmeyer. New York: Academic, 1983, p. 507-514.

[3] = tested on: lactate dehydrogenase; assay: Muscle lactate dehydrogenase activity after chronic AICAR injection; settings: chronic AICAR 1 mg/g daily 4 wk
Protocol: (§3) To determine the effect of chronic injection of AICAR on muscle enyzme activities or expression and on muscle GLUT4, rats were injected subcutaneously (between 8 and 10 a.m.) with AICAR (1 mg/g) or saline vehicle daily for 28±1 days in succession. Beginning with the first injection, controls were pair fed with AICAR-injected rats. Rats were anesthetized by intraperitoneal injection of pentobarbital sodium 22-25 hours after the last AICAR injection and the white and red regions of the quadriceps and the soleus muscles were removed and frozen as described above. Muscles were kept frozen at −70° C. until analyzed. Liver, heart, kidney, and fat pads were weighed.
(§4) For enzyme activity measurements, 10% homogenates were made from the respective muscles in 175 mM KCl, 10 mM GSH, 2 mM EDTA, pH 7.4. This homogenate was frozen and thawed 3 times and mixed thoroughly prior to enzymatic measurements. For succinate dehydrogenase and lactate dehydrogenase, an aliquot of the homogenate was centrifuged at 700×g for 10 min at 4° C. The remainder of the assays were performed on aliquots and dilutions of the mixed whole homogenate. Assays were performed by the following methods: citrate synthase, succinate dehydrogenase, the mitochondrial fraction of malate dehydrogenase, hexokinase, lactate dehydrogenase, carnitine palmitoyl transferase and hydroxyacyl-CoA dehydrogenase. Srere, P. A. Methods in Enzymology 13:3-6, 1969; King, T. E. Methods Enzymol 10:322-335, 1967; Shonk, C. E. & G. E. Boxer, Cancer Res. 24:709-721, 1964; Uyeda, K., & E. Racker, J. Biol Chem 240:4682-4688, 1965; Pesce, A., et al. J. Biol. Chem. 239:1753-1761, 1964; Baldwin, K. M., et al. Am. J. Physiol 222:373-378, 1972; Mole, P. A., et al. J. Clin. Invest. 50:2323-2330, 1971; Kobayashi, A. et al. J. Biochem. 119:775-782, 1996.

[4] = tested on: citrate synthase; assay: Muscle citrate synthase activity after chronic or intermittent AICAR injection; settings: for citrate synthase activity vs saline-injected controls: AICAR 4 weeks, FIG. 3
Protocol: as §3, §2, §4

[5] = tested on: succinate dehydrogenase; assay: Muscle succinate dehydrogenase activity after chronic AICAR injection; settings: AICAR 1 mg/g daily 4 wk, FIG. 4
Protocol: as §3
For enzyme activity measurements, 10% homogenates were made from the respective muscles in 175 mM KCl, 10 mM GSH, 2 mM EDTA, pH 7.4. This homogenate was frozen and thawed 3 times and mixed thoroughly prior to enzymatic measurements. For succinate dehydrogenase and lactate dehydrogenase, an aliquot of the homogenate was centrifuged at 700×g for 10 min at 4° C. The remainder of the assays were performed on aliquots and dilutions of the mixed whole homogenate. Assays were performed by the following methods: citrate synthase, succinate dehydrogenase, the mitochondrial fraction of malate dehydrogenase, hexokinase, lactate dehydrogenase, carnitine palmitoyl transferase and hydroxyacyl-CoA dehydrogenase. […]

[6] = tested on: malate dehydrogenase; assay: Muscle malate dehydrogenase activity after chronic AICAR injection; settings: AICAR 1 mg/g daily 4 wk, FIG. 4
Protocol: as §3, §4

[7] = Muscle weights in 3-day denervated and contralateral control muscles; settings: same in both treatment groups
Protocol: Rats were anesthetized with ether and the sciatic nerve of the right hindlimb was severed. The left hindlimb was sham operated to serve as a control. Both skin wounds were closed with a metal clips. The rats used for the acute study were also implanted with a jugular catheter which was exteriorized on the back of the neck at the time of denervation for rapid administration of anesthesia.
Rats were injected either with AICAR (1 mg in 0.9% NaCl/g body weight) or a 0.9% NaCl solution ˜0, ˜24, and ˜48 hours after denervation and were then sacrificed ˜72 hours after denervation without injection. Rats were anesthetized with sodium pentobarbital (4.8 mg/100 g. body weight), soleus and gastrocnemius muscles from both sham and denervated sides were extracted, and muscles were quick frozen in liquid nitrogen and stored for analysis.

`NC(=O)c1ncn([C@@H]2O[C@H](CO)[C@@H](O)[C@H]2O)c1N` [AICAR, 5-aminoimidazole-4-carboxamide-1-β-D-ribofuranoside] gave an AMPK ([1]; red quadriceps, 60 min after AICAR injection, after daily injections for 4 wk) of 200 ± 17 pmol/g/min, an AMPK ([1]; red quadriceps, 60 min after single AICAR injection 1 mg/g s.c., no chronic treatment) of 405 ± 62 pmol/g/min and an AMPK ([1]; soleus, 60 min after AICAR injection, after daily injections for 4 wk) of 191 ± 22 pmol/g/min. The AMPK ([1]; soleus, 60 min after single AICAR injection 1 mg/g s.c., no chronic treatment) was 447 ± 42 pmol/g/min, the AMPK ([1]; white quadriceps, 60 min after AICAR injection, after daily injections for 4 wk) was 258 ± 32 pmol/g/min and the AMPK ([1]; white quadriceps, 60 min after single AICAR injection 1 mg/g s.c., no chronic treatment) was 1,102 ± 80 pmol/g/min. The “time course of ZMP in muscle after subcutaneous injection of AICAR” value ([2]; increased 15 minutes following injection) was “remains elevated for at least two hours”, the ZMP concentration ([2]; red quadriceps) was 0.94 ± 0.08 µmol/g and the ZMP concentration ([2]; soleus muscle) was 1.15 ± 0.07 µmol/g. For the same molecule, the ZMP concentration ([2]; white quadriceps) was 0.42 ± 0.04 µmol/g, the LDH activity ([3]; red quadriceps) was 557 ± 26 µmol/g/min and the LDH activity ([3]; soleus) was 162 ± 7 µmol/g/min. For the same molecule, the LDH activity ([3]; white quadriceps) was 685 ± 20 µmol/g/min, the “citrate synthase activity vs saline-injected controls” value ([4]; red quadriceps) was “not in red quadriceps” and the citrate synthase ([4]; red region of the quadriceps, intermittent AICAR injections 1 mg/g) was 57.4 ± 2.5 µmol/g/min. The “citrate synthase activity vs saline-injected controls” value ([4]; soleus) was “significantly increased”, the “citrate synthase activity vs saline-injected controls” value ([4]; white quadriceps) was “significantly increased” and the “citrate synthase increase vs controls” value ([4]; white quadriceps, intermittent AICAR injections) was 48%. For the same molecule, the citrate synthase ([4]; white quadriceps, intermittent AICAR injections 1 mg/g (3 days on, 2 off, 5 on, 2 off, 3 on)) was 23.0 ± 1.2 µmol/g/min, the “succinate dehydrogenase activity vs controls” value ([5]; soleus) was “all increased” and the “succinate dehydrogenase activity vs controls” value ([5]; white quadriceps) was “all increased”. For the same molecule, the “malate dehydrogenase activity vs controls” value ([6]; red quadriceps) was “not in red quadriceps”, the “malate dehydrogenase activity vs controls” value ([6]; soleus) was “all increased” and the “malate dehydrogenase activity vs controls” value ([6]; white quadriceps) was “all increased”. The “loss of muscle mass after 3 days of denervation” value ([7]; gastrocnemius) was about 14% and the “loss of muscle mass after 3 days of denervation” value ([7]; soleus) was about 20%.
